Experimental data published in article PMC6992764 (Nature Communications, 2020).

Assays:
B16 tumor cells = assay: B16 tumor cell growth (WST-1 assay); format: cell-based; conditions: B16, 48 h
Description: (§1) To evaluate the effects of compounds on cell growth, cells were incubated with inhibitors for 48 h, then WST-1 (Dojindo) was added to the culture for the final 30 min. An Envision instrument (PerkinElmer) was used to measure the absorbance of each well at 450 nm versus a 650-nm reference to detect the amount of formazan produced from WST-1 by mitochondrial dehydrogenases in viable cells.

LLC tumor cells = assay: LLC tumor cell growth (WST-1 assay); format: cell-based; conditions: 48 h
Description: as §1

B16 melanoma = assay: B16 lung metastasis model; format: in vivo, C57BL/6 mice
Description: For evaluating subcutaneous tumor growth, LLC or B16 cells (5 × 10^5) in 50 μl PBS were inoculated subcutaneously into the right flanks of mice. Mice were euthanized when their tumor volumes reached 4000 mm^3. Tumor sizes were measured twice a week using calipers. Tumor volume was calculated using the following formula: Volume = (width)^2 × length/2. For the lung metastasis model, 1 × 10^6 LLC or B16 cells in 200 μl PBS were injected intravenously into mice. Mice were euthanized at day 10 after tumor injection for the LLC model and day 5–9 for the B16 model, and the lungs were isolated after perfusion with PBS via the left ventricle. Visible lung metastases were counted in the left lobe. The diameters of metastatic nodules in the lung lobe image were measured using ImageJ software. […] Anti-PD-1 antibody (clone J43, BioXcell) was injected intraperitoneally at a dose of 200 μg per mouse on day 5, 8, 14, and 18 after tumor inoculation. Mice were anesthetized and perfused with PBS and the left lungs were isolated. […] Fluorescence images derived from B16-DsRed cells and stained antibodies were obtained using an SP5 confocal microscope (Leica Microsystems). The F4/80 + macrophage number accumulated in and around the tumor nodule visualized by fluorescent protein was counted per nodule of similar sizes among the control and FROUNT-cKO, vehicle, or DSF-treated groups.

THP-1 cells = assay: Chemotaxis inhibition assay (chemoTX chamber, CCL2); format: cell-based, human; conditions: towards CCL2, 90 min
Description: Chemotaxis was measured in a 96-well chemoTX chemotaxis chamber with a polycarbonate filter (5-μm pore size) (Neuro probe). Human CCL2 (R&D Systems) was added to the lower chamber of the plate and the cells were added to the upper chamber. After incubation at 37 °C and 5% CO2 for 90 min, the filter was removed and the number of migrated cells in the lower chamber was counted using a cell counting kit F (Dojindo). Data are expressed as migration efficiency (percentage of the maximal migration).

In the case of `CCN(CC)C(=S)SSC(=S)N(CC)CC` [DSF, disulfiram], the in vitro growth (B16 tumor cells) is reported as “no effect”, the in vitro growth (LLC tumor cells) is reported as “no effect” and the “lung metastatic nodule formation” value (B16 melanoma; B16 i.v., DSF 40 mg kg-1 i.p. daily) is reported as “significantly reduced”. The “macrophage accumulation around tumor metastatic nodules” value (B16 melanoma; day 12 after B16 tumor cell injection, F4/80) was “diminished” and the cellular chemotaxis (THP-1 cells) was “inhibited”.
